We go through one molecule from patent US8338624B2, “Isoflavone derivatives and uses thereof” (Yeda Research and Development Co., Ltd., priority 2007, dated 2012).

Assay [1] concerns MLS ovarian cancer cells. The experiment in a line: DNA synthesis by [3H]-thymidine incorporation, MLS cells. In kind it is cell-based, human. Here is the method: (§1) Cells were cultured in MEM supplemented with 10% FCS and antibiotics. Cells were grown to subconfluence and then treated with various hormones or agents as described by Somjen et al. (Somjen et al., 1998). The cells were characterized in terms of expression of mRNAs for estrogen […] by real time PCR, and the results are summarized in Table 1. N87, 320DM and H295R cells expressed mRNAs for both ERs. The ratio of ERα to ERβ was 1:8.5, 1:30 and 1:1.8 in N87, 320DM and H295R cells, respectively. Ovarian A2780 and prostate C4-24 cells expressed mainly mRNA for ERβ, and the ratio of ERβ to ERα was 300:1 and 70:1, respectively. MLS ovarian cells expressed mRNA only for ERβ. The ratio of ERα to ERβ in T47D cells has been reported to be 9:1.
(§2) [^3H]-Thymidine incorporation into DNA was used for the assessment of the various effects (proliferative or inhibitory) of various isoflavones, isoflavone derivatives and known cytotoxic drugs in the above-mentioned cells. Cells were grown until subconfluence using conditions described in Somjen et al. (Somjen et al., 1998) and then treated with various agents for 24 or 48 h as indicated. At the end of incubation, [^3H]-thymidine was added for two hours. Cells were then treated with 10% ice-cold trichloroacetic (TCA) for 5 min and washed twice with 5% TCA and then with cold ethanol. The cellular layer was dissolved in 0.3 ml of 0.3 M NaOH, aliquots were taken for counting radioactivity, and [^3H]-thymidine incorporation into DNA was calculated.
Background: Dividing cells build labelled thymidine or BrdU into new DNA.

Assay [2] has as its system Human umbilical vascular smooth muscle cells (VSMC). Kind of assay: DNA synthesis by [3H]-thymidine incorporation, normal VSMC. In kind it is cell-based. To be noted: compound at 3 μM. Here is the method: Human umbilical vascular smooth muscle cells (VSMC) sensitive to estrogen, were grown in culture as described above, and used only at passages 1-3, when expression of smooth muscle actin was clearly demonstrable (Somjen et al. 2000). The ratio of the expression of mRNA for ERα to ERβ was 2.7:1.
as §2

Assay [3] concerns T47D mammary cancer cells. Kind of assay: DNA synthesis by [3H]-thymidine incorporation, T47D cells. In kind it is cell-based, human. The conditions noted are these: Homo sapiens. Here is the method:
as §1, §2

The subject of assay [4] is MDA-MB-435 breast cancer cell line. The experiment in a line: NCI In Vitro Cell Line Screening, MDA-MB-435. The conditions noted are these: Homo sapiens, read-out: log10 GI50 (converted). In kind it is cell-based. Here is the method: (§3) An in vitro cell line screen for the t-boc derivative of daidzein (compound 9) was performed at the NCI/NIH US utilizing the In Vitro Cell Line Screening Project (IVCLSP) (National Cancer Institute, Developmental Therapeutics Program, Information Technology Branch, Rockville, Md., USA).
(§4) The operation of this screen utilized 60 different human tumor cell lines, representing leukemia, melanoma and cancers of the lung, colon, brain, ovary, breast, prostate, and kidney. […] Using these algorithms, it is possible to assign a putative mechanism of action to a test compound, or to determine that the response pattern is unique and not similar to that of any of the standard prototype compounds included in the NCI database.
(§5) To facilitate analysis of the data, three endpoints were calculated for each cell line: The GI50 value, which is the negative log10 of the concentration required to inhibit the growth of that cell line by 50% (relative to untreated cells); TGI, the negative log10 of minimum concentration that causes total growth inhibition; and LC50, which reflects the negative log10 concentration needed to kill 50% of the cells. A Mean Graph was used as a way of easily visualizing the results from all 60 cell lines at once. To generate this graph, the mean of GI50 values across all 60 cell lines was calculated. […]

Assay [5] has as its system T-47D breast cancer cell line. The experiment in a line: NCI In Vitro Cell Line Screening, T-47D. The class given is cell-based. To be noted: Homo sapiens, T47D, read-out: log10 GI50 (converted). Here is the method:
as §3, §4, §5

Assay [6] deals with OVCAR-4 ovarian cancer cell line. The experiment in a line: NCI In Vitro Cell Line Screening, OVCAR-4. In kind it is cell-based. The conditions noted are these: Homo sapiens, read-out: log10 GI50 (converted). Here is the method: as §3, §4, §5

The inhibition is the share of the control response that was lost under treatment. Read a high inhibition as a strong effect. For orientation: GI50 means the concentration at which growth is held to half of that of the control. As to `CC(C)(C)OC(=O)NCCCCCCNC(=O)COc1ccc2c(=O)c(-c3ccc(O)cc3)coc2c1` [Compound 9], in assay [1], the “incubation time at which plateau of inhibition of DNA synthesis was reached” value is recorded as 72 h. Moreover, the “DNA synthesis, ratio experimental/control (E/C)” value in assay [1] (9 (0.3 μM) + E2 30 nM) is recorded as 0.96 ± 0.24; in assay [1] (9 (0.3 μM) + E2 0.3 μM), 2.39 ± 0.07; in assay [1] (9 at 0.3 μM + Z-VADFK (25 μM)), 1.32 ± 0.26; in assay [1] (9 at 0.3 μM alone (Table 3)), 0.61 ± 0.10; in assay [1] (9 at 0.3 μM alone (Table 4)) it was 0.74 ± 0.11; in assay [1] (9 at 3 μM + Z-VADFK 25 μM), 0.76 ± 0.16. The “DNA synthesis, ratio experimental/control (E/C)” value in assay [1] (9 at 3 μM alone (Table 4)) is on record as 0.44 ± 0.14; in assay [1] (compound at 3 μM) it was 0.03 ± 0.07; in assay [2], 0.73 ± 0.13. Also, the results for the “DNA synthesis (% of control)” value in assay [1] (9 at 0.3 μM + 25 μM Z-VADFK) and in assay [1] (estradiol 30 nM + 0.3 μM compound 9) were 132% and 96%, respectively. In addition, the “suppression of the proliferative effect of estradiol” value in assay [1] (9 at 0.3 μM + estradiol 0.3 μM) is “could not suppress its proliferative effect”. For the same molecule, the “effect of apoptosis inhibitor on inhibition by 9” value in assay [1] (9 at 3 μM + Z-VADFK 25 μM) is given as “capable of reversing the inhibitory effect of 9 on DNA synthesis”. Further, in assay [1] (15 to 6000 nmol/l), the “effect on [3H]-thymidine incorporation into DNA” value is “dose dependent decreases”. This molecule gave an inhibition at 0.3 µM in assay [1] (Homo sapiens, 9 at 0.3 μM alone) of 26%. Further, the inhibition at 3 µM in assay [1] (Homo sapiens, 9 at 3 μM alone) was found to be 56%. The molecule further returned an inhibition at 10 µM in assay [3] of 24 to 40%. Further, the GI50 in assay [4] is 1820 nM; in assay [5], 1350 nM; in assay [6], 407 nM.
